Experimental data: PubChem BioAssay (NCI)
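Test compounds were applied to cells in 96-well plates for 48 hours at 5 doses. At the GI50, growth is halved. TGI: concentration producing complete growth inhibition.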

Tests used:
Assay in all cases: growth of human tumour cells (NCI), 48 h; in the data active = GI50 below about 0.43 µM; inactive = the rest
MDA-MB-231 breast = test system: MDA-MB-231 breast
KM12 colon = test system: KM12 colon
SK-MEL-5 melanoma = test system: SK-MEL-5 melanoma
SNB-19 CNS = test system: SNB-19 CNS
HOP-62 NSCLC = test system: HOP-62 NSCLC
SF-268 CNS = test system: SF-268 CNS
IGROV1 ovarian = test system: IGROV1 ovarian
UACC-62 melanoma = test system: UACC-62 melanoma
SR leukemia = test system: SR leukemia
SNB-75 CNS = test system: SNB-75 CNS
OVCAR-5 ovarian = test system: OVCAR-5 ovarian
HL-60(TB) leukemia = test system: HL-60(TB) leukemia
EKVX NSCLC = test system: EKVX NSCLC
NCI-H226 lung = test system: NCI-H226 lung
MDA-MB-435 = test system: MDA-MB-435
A498 renal = test system: A498 renal
MCF7 breast = test system: MCF7 breast
HT29 colon = test system: HT29 colon
NCI/ADR-RES ovarian = test system: NCI/ADR-RES ovarian
ACHN renal = test system: ACHN renal
786-0 renal = test system: 786-0 renal
K-562 leukemia = test system: K-562 leukemia
NCI-H522 lung = test system: NCI-H522 lung
RPMI-8226 leukemia = test system: RPMI-8226 leukemia
M14 melanoma = test system: M14 melanoma
PC-3 prostate = test system: PC-3 prostate
CCRF-CEM leukemia = test system: CCRF-CEM leukemia
SW-620 colon = test system: SW-620 colon
SK-MEL-28 melanoma = test system: SK-MEL-28 melanoma
UO-31 renal = test system: UO-31 renal
T-47D breast = test system: T-47D breast
MALME-3M melanoma = test system: MALME-3M melanoma
MOLT-4 leukemia = test system: MOLT-4 leukemia
HCC-2998 colon = test system: HCC-2998 colon
OVCAR-4 ovarian = test system: OVCAR-4 ovarian
HCT-15 colon = test system: HCT-15 colon
RXF 393 renal = test system: RXF 393 renal
OVCAR-8 ovarian = test system: OVCAR-8 ovarian
DU-145 prostate = test system: DU-145 prostate
NCI-H460 lung = test system: NCI-H460 lung
COLO 205 colon = test system: COLO 205 colon
SF-539 CNS = test system: SF-539 CNS
BT-549 breast = test system: BT-549 breast
LOX IMVI melanoma = test system: LOX IMVI melanoma
HS 578T breast = test system: HS 578T breast
A549 NSCLC = test system: A549 NSCLC
HOP-92 NSCLC = test system: HOP-92 NSCLC
NCI-H23 lung = test system: NCI-H23 lung
SK-OV-3 ovarian = test system: SK-OV-3 ovarian
SF-295 CNS = test system: SF-295 CNS
TK-10 renal = test system: TK-10 renal
HCT-116 colon = test system: HCT-116 colon
U251 CNS = test system: U251 CNS
UACC-257 melanoma = test system: UACC-257 melanoma
SN12C renal = test system: SN12C renal
OVCAR-3 ovarian = test system: OVCAR-3 ovarian

N=C(N)N=Nc1ccc(NN=C(N)N)c2c1ncc1c2nc2sccn21
59.3 µM: TGI (HCT-15 colon)
> 100 µM: TGI (KM12 colon) | TGI (SNB-19 CNS) | TGI (HOP-62 NSCLC) | TGI (IGROV1 ovarian) | TGI (SR leukemia) | TGI (SNB-75 CNS) | TGI (HL-60(TB) leukemia) | TGI (NCI-H226 lung) | TGI (MCF7 breast) | TGI (HT29 colon) | TGI (NCI/ADR-RES ovarian) | TGI (786-0 renal) | TGI (K-562 leukemia) | TGI (NCI-H522 lung) | TGI (CCRF-CEM leukemia) | TGI (UO-31 renal) | TGI (T-47D breast) | TGI (MOLT-4 leukemia) | TGI (HCC-2998 colon) | TGI (OVCAR-8 ovarian) | TGI (NCI-H460 lung) | TGI (COLO 205 colon) | TGI (LOX IMVI melanoma) | TGI (A549 NSCLC) | TGI (NCI-H23 lung) | TGI (SK-OV-3 ovarian) | TGI (SF-295 CNS) | TGI (HCT-116 colon) | TGI (U251 CNS) | TGI (SN12C renal) | TGI (OVCAR-3 ovarian)
63.4 µM: TGI (HS 578T breast)
35.9 µM: TGI (SF-268 CNS)
57.2 µM: TGI (UACC-62 melanoma)
51.3 µM: TGI (ACHN renal)
66.6 µM: TGI (MDA-MB-231 breast)
95 µM: TGI (SK-MEL-28 melanoma)
44.3 µM: TGI (DU-145 prostate)
45.8 µM: TGI (EKVX NSCLC)
35.5 µM: TGI (TK-10 renal)
99.5 µM: TGI (PC-3 prostate)
45.9 µM: TGI (MALME-3M melanoma)
65.4 µM: TGI (HOP-92 NSCLC)
34.6 µM: TGI (RXF 393 renal)
72.1 µM: TGI (OVCAR-5 ovarian)
32.9 µM: TGI (BT-549 breast)
37.7 µM: TGI (SK-MEL-5 melanoma)
40.6 µM: TGI (UACC-257 melanoma)
inactive: GI50 (MDA-MB-231 breast) 33 µM | GI50 (KM12 colon) 21.9 µM | GI50 (SK-MEL-5 melanoma) 15.7 µM | GI50 (SNB-19 CNS) > 100 µM | GI50 (HOP-62 NSCLC) 29.6 µM | GI50 (SF-268 CNS) 10.7 µM | GI50 (IGROV1 ovarian) 8.7 µM | GI50 (UACC-62 melanoma) 21.3 µM | GI50 (SR leukemia) > 100 µM | GI50 (SNB-75 CNS) 25.9 µM | GI50 (OVCAR-5 ovarian) 27.8 µM | GI50 (HL-60(TB) leukemia) 73.6 µM | GI50 (EKVX NSCLC) 21.6 µM | GI50 (NCI-H226 lung) 32.3 µM | GI50 (MDA-MB-435) 19.5 µM | GI50 (A498 renal) 24.2 µM | GI50 (MCF7 breast) 23 µM | GI50 (HT29 colon) 55.6 µM | GI50 (NCI/ADR-RES ovarian) 28.6 µM | GI50 (ACHN renal) 22.3 µM | GI50 (786-0 renal) 29.2 µM | GI50 (K-562 leukemia) 31.4 µM | GI50 (NCI-H522 lung) 22.1 µM | GI50 (RPMI-8226 leukemia) 14 µM | GI50 (M14 melanoma) 22.9 µM | GI50 (PC-3 prostate) 27 µM | GI50 (CCRF-CEM leukemia) 20.8 µM | GI50 (SW-620 colon) 23.9 µM | GI50 (SK-MEL-28 melanoma) 30.6 µM | GI50 (UO-31 renal) 23.7 µM | GI50 (T-47D breast) > 100 µM | GI50 (MALME-3M melanoma) 21.9 µM | GI50 (MOLT-4 leukemia) 80.3 µM | GI50 (HCC-2998 colon) 65.7 µM | GI50 (OVCAR-4 ovarian) 22.6 µM | GI50 (HCT-15 colon) 16.7 µM | GI50 (RXF 393 renal) 8.98 µM | GI50 (OVCAR-8 ovarian) 27.3 µM | GI50 (DU-145 prostate) 15.3 µM | GI50 (NCI-H460 lung) 24 µM | GI50 (COLO 205 colon) 40.6 µM | GI50 (SF-539 CNS) 21 µM | GI50 (BT-549 breast) 16.5 µM | GI50 (LOX IMVI melanoma) 21.1 µM | GI50 (HS 578T breast) 18.9 µM | GI50 (A549 NSCLC) 42.7 µM | GI50 (HOP-92 NSCLC) 25.5 µM | GI50 (NCI-H23 lung) 32.1 µM | GI50 (SK-OV-3 ovarian) 93.4 µM | GI50 (SF-295 CNS) 32 µM | GI50 (TK-10 renal) 18 µM | GI50 (HCT-116 colon) 25.8 µM | GI50 (U251 CNS) 23.2 µM | GI50 (UACC-257 melanoma) 18.6 µM | GI50 (SN12C renal) 36.4 µM | GI50 (OVCAR-3 ovarian) 18.8 µM
91.2 µM: TGI (RPMI-8226 leukemia)
74.2 µM: TGI (OVCAR-4 ovarian)
67.8 µM: TGI (SW-620 colon)
80 µM: TGI (A498 renal) | TGI (M14 melanoma)
94.8 µM: TGI (SF-539 CNS)
52.1 µM: TGI (MDA-MB-435)
